In PubChem BioAssay AID1963832 (Molecular Pharmacology Branch, DTP, NCI, 2024):

Test system: 885724-159-R-J1-PDC complex spheroid viability
Assay: Anticancer human tumor 885724-159-R-J1-PDC patient-derived pancreatic adenocarcinoma cell line growth inhibition [POLQ]
Settings: for IC50: curve of first compound; for viability, T/C: stronger effect = lower value
How it was run: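 Three-cell-type spheroids modelling solid tumor plus stroma served as the readout system; POL inhibitors were tested individually and in combination, concentration ranges set by clinical Cmax where known.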

[1] = second compound 0.0316 µM, first compound 0.00316 µM
[2] = second compound 0.0316 µM, first compound 0.01 µM
[3] = second compound 0.0316 µM, first compound 0.0316 µM
[4] = second compound 0.0316 µM, first compound 0.1 µM
[5] = second compound 0.0316 µM, first compound 0.316 µM
[6] = second compound 0.0316 µM, first compound 1 µM
[7] = second compound 0.1 µM, first compound 0.00316 µM
[8] = second compound 0.1 µM, first compound 0.01 µM
[9] = second compound 0.1 µM, first compound 0.0316 µM
[10] = second compound 0.1 µM, first compound 0.1 µM
[11] = second compound 0.1 µM, first compound 0.316 µM
[12] = second compound 0.1 µM, first compound 1 µM
[13] = second compound 0.316 µM, first compound 0.00316 µM
[14] = second compound 0.316 µM, first compound 0.01 µM
[15] = second compound 0.316 µM, first compound 0.0316 µM
[16] = second compound 0.316 µM, first compound 0.1 µM
[17] = second compound 0.316 µM, first compound 0.316 µM
[18] = second compound 0.316 µM, first compound 1 µM
[19] = second compound 1 µM, first compound 0.00316 µM
[20] = second compound 1 µM, first compound 0.01 µM
[21] = second compound 1 µM, first compound 0.0316 µM
[22] = second compound 1 µM, first compound 0.1 µM
[23] = second compound 1 µM, first compound 0.316 µM
[24] = second compound 1 µM, first compound 1 µM
[25] = second compound 3.16 µM, first compound 0.00316 µM
[26] = second compound 3.16 µM, first compound 0.01 µM
[27] = second compound 3.16 µM, first compound 0.0316 µM
[28] = second compound 3.16 µM, first compound 0.1 µM
[29] = second compound 3.16 µM, first compound 0.316 µM
[30] = second compound 3.16 µM, first compound 1 µM
[31] = second compound 10 µM, first compound 0.00316 µM
[32] = second compound 10 µM, first compound 0.01 µM
[33] = second compound 10 µM, first compound 0.0316 µM
[34] = second compound 10 µM, first compound 0.1 µM
[35] = second compound 10 µM, first compound 0.316 µM
[36] = second compound 10 µM, first compound 1 µM
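Also: spheroids exposed to compounds for 7 days.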

C=CCn1c(=O)c2cnc(Nc3ccc(N4CCN(C)CC4)cc3)nc2n1-c1cccc(C(C)(C)O)n1 + Cc1cccc(N(C)C(=O)C2C(O)CCN2c2nc(C)cc(C(F)(F)F)c2C#N)c1
IC50 (second compound 0.0316 µM): > 1000 nM
IC50 (second compound 0.1 µM): 771 nM
IC50 (second compound 0.316 µM): 435 nM
IC50 (second compound 1 µM): 856 nM
IC50 (second compound 3.16 µM): > 1000 nM
IC50 (second compound 10 µM): 817 nM
viability, T/C [1]: 101%
viability, T/C [2]: 95.6%
viability, T/C [3]: 84.9%
viability, T/C [4]: 72.6%
viability, T/C [5]: 56.5%
viability, T/C [6]: 51.1%
viability, T/C [7]: 105%
viability, T/C [8]: 98%
viability, T/C [9]: 93%
viability, T/C [10]: 77.2%
viability, T/C [11]: 59.9%
viability, T/C [12]: 47.2%
viability, T/C [13]: 98.6%
viability, T/C [14]: 97.9%
viability, T/C [15]: 93.7%
viability, T/C [16]: 73%
viability, T/C [17]: 53.3%
viability, T/C [18]: 43.6%
viability, T/C [19]: 101%
viability, T/C [20]: 93.8%
viability, T/C [21]: 88.9%
viability, T/C [22]: 70.1%
viability, T/C [23]: 55%
viability, T/C [24]: 49.4%
viability, T/C [25]: 92.2%
viability, T/C [26]: 96.5%
viability, T/C [27]: 94.2%
viability, T/C [28]: 77.7%
viability, T/C [29]: 61.6%
viability, T/C [30]: 50%
viability, T/C [31]: 103%
viability, T/C [32]: 84.8%
viability, T/C [33]: 98.2%
viability, T/C [34]: 82.7%
viability, T/C [35]: 61.6%
viability, T/C [36]: 47.5%

CCCS(=O)(=O)Nc1ccc(F)c(C(=O)c2c[nH]c3ncc(-c4ccc(Cl)cc4)cc23)c1F + Cc1cccc(N(C)C(=O)C2C(O)CCN2c2nc(C)cc(C(F)(F)F)c2C#N)c1
IC50 (second compound 0.0316 µM): > 10000 nM
IC50 (second compound 0.1 µM): > 10000 nM
IC50 (second compound 0.316 µM): > 10000 nM
IC50 (second compound 1 µM): > 10000 nM
IC50 (second compound 3.16 µM): > 10000 nM
IC50 (second compound 10 µM): > 10000 nM
viability, T/C [3]: 100%
viability, T/C [4]: 118%
viability, T/C [5]: 116%
viability, T/C [6]: 142%
viability, T/C (second compound 0.0316 µM, first compound 3.16 µM): 140%
viability, T/C (second compound 0.0316 µM, first compound 10 µM): 94.6%
viability, T/C [9]: 99.8%
viability, T/C [10]: 111%
viability, T/C [11]: 122%
viability, T/C [12]: 142%
viability, T/C (second compound 0.1 µM, first compound 3.16 µM): 158%
viability, T/C (second compound 0.1 µM, first compound 10 µM): 99.4%
viability, T/C [15]: 103%
viability, T/C [16]: 112%
viability, T/C [17]: 135%
viability, T/C [18]: 158%
viability, T/C (second compound 0.316 µM, first compound 3.16 µM): 158%
viability, T/C (second compound 0.316 µM, first compound 10 µM): 100%
viability, T/C [21]: 117%
viability, T/C [22]: 102%
viability, T/C [23]: 123%
viability, T/C [24]: 144%
viability, T/C (second compound 1 µM, first compound 3.16 µM): 160%
viability, T/C (second compound 1 µM, first compound 10 µM): 97.5%
viability, T/C [27]: 108%
viability, T/C [28]: 109%
viability, T/C [29]: 121%
viability, T/C [30]: 155%
viability, T/C (second compound 3.16 µM, first compound 3.16 µM): 151%
viability, T/C (second compound 3.16 µM, first compound 10 µM): 86.6%
viability, T/C [33]: 101%
viability, T/C [34]: 105%
viability, T/C [35]: 143%
viability, T/C [36]: 153%
viability, T/C (second compound 10 µM, first compound 3.16 µM): 137%
viability, T/C (second compound 10 µM, first compound 10 µM): 82.9%

CCc1c2c(nc3ccc(O)cc13)-c1cc3c(c(=O)n1C2)COC(=O)[C@]3(O)CC + Cc1cccc(N(C)C(=O)C2C(O)CCN2c2nc(C)cc(C(F)(F)F)c2C#N)c1
IC50 (second compound 0.0316 µM): 96.3 nM
IC50 (second compound 0.1 µM): 66.8 nM
IC50 (second compound 0.316 µM): 75.2 nM
IC50 (second compound 1 µM): 58.8 nM
IC50 (second compound 3.16 µM): 53 nM
IC50 (second compound 10 µM): 56.8 nM
viability, T/C [1]: 80.9%
viability, T/C [2]: 53.6%
viability, T/C [3]: 53.3%
viability, T/C [4]: 52.6%
viability, T/C [5]: 39.9%
viability, T/C [6]: 5.13%
viability, T/C [7]: 80.6%
viability, T/C [8]: 64.4%
viability, T/C [9]: 50.5%
viability, T/C [10]: 49.4%
viability, T/C [11]: 35.3%
viability, T/C [12]: 4.47%
viability, T/C [13]: 82.7%
viability, T/C [14]: 68.3%
viability, T/C [15]: 55.5%
viability, T/C [16]: 47.4%
viability, T/C [17]: 34.5%
viability, T/C [18]: 4.66%
viability, T/C [19]: 79.6%
viability, T/C [20]: 65.8%
viability, T/C [21]: 51.8%
viability, T/C [22]: 46.8%
viability, T/C [23]: 34.5%
viability, T/C [24]: 4.77%
viability, T/C [25]: 98%
viability, T/C [26]: 62.3%
viability, T/C [27]: 51.7%
viability, T/C [28]: 50.7%
viability, T/C [29]: 28.6%
viability, T/C [30]: 4.41%
viability, T/C [31]: 80.2%
viability, T/C [32]: 64.9%
viability, T/C [33]: 52.2%
viability, T/C [34]: 46.4%
viability, T/C [35]: 30.1%
viability, T/C [36]: 4.59%
